One series deals with HIV. Particulars: cited from earlier work.
A further series concerns HIV-1, strain HTLV-IIIB. The series can be described thus: Reduction of cytopathogenic effect (CPE) in HIV-1 infected CEM cells, MTT assay. In kind it is cell-based. As to the method:
These tests involved plating of susceptible human host cells which are syncytium-sensitive with and without virus in microculture plates, adding various concentrations of the test compound, incubating the plates for 9 days (during which time infected, non-drug treated control cells are largely or totally destroyed by the virus), and then determining the number of remaining viable cells using a colorimetric endpoint.
Tissue culture plates were incubated at 37° C. in a humidified, 5% CO2 atmosphere and observed microscopically for toxicity and/or cytopathogenic effect (CPE). At 2 and 6 days after infection, fresh dilutions of each test article were prepared from the frozen stock, and a 20 μl volume of each dilution (prepared as a 10× concentration was added to the appropriate wells of both infected and uninfected cells.
On the 9th day post-infection, the cells in each well were resuspended and a 100 μl sample of each cell suspension was removed for use in an MTT assay. A 20 μl volume of a 5 mg/ml solution of 3-(4,5-dimethylthiazol-2-yl)-2,5-diphenyltetrazolium bromide (MTT) was added to each 100 μl cell suspension, and the cells were incubated at 37° C. in 5% CO2 for 4 hours. […] A 100 μl volume of a solution of 10% sodium dodecyl sulfate in 0.01N hydrochloric acid wa added to each sample, and the samples were incubated overnight. The absorbance at 590 nm was determined for each sample using a Molecular Devices Vmax microplate reader. This assay detects drug-induced suppression of viral CPE, as well as drug cytotoxicity, by measuring the generation of MTT-formazan by surviving cells.
Assays were done in 96-well tissue culture plates. CEM cells were treated with polybrene at a concentration of 2 μg/ml, and an 80 μl volume of cells (1×10^4 cells) was dispensed into each well. A 100 μl volume of each test article dilution (prepared as a 2× concentration) was added to 5 wells of cells, and the cells were incubated at 37° C. for 1 hour. A frozen culture of HIV-1, strain HTLV-IIIB, was diluted in culture medium to a concentration of 5×10^4 TCID50 per ml, and a 20 μl volume (containing 10^3 TCID50 of virus) was added to 3 of the wells for each test article concentration. […] A 20 μl volume of normal culture medium was added to the remaining wells to allow evaluation of cytotoxicity. Each plate contained 6 wells of untreated, uninfected, cell control samples and 6 wells of untreated, infected, virus control samples. Dideoxycytidine (DDC) and dideoxyadenosine (DDA) were included as positive control compounds.

Series [1] has as its system almond β-glucosidase. The series can be described thus: Beta-glucosidase inhibition assay, pH 7.4. In kind it is biochemical. Particulars: for Inhibition Index (first, head is drawing 3) / Inhibition Index (second, head is drawing 4): ratio of IC50 values; for Inhibition Index (first, head is drawing 3): numerically almond pH 4.8 / almond pH 7.4; for Inhibition Index (second, head is drawing 4): numerically yeast α pH 7.4 / almond β pH 7.4; for Enzyme Inhibition, Almond β-Glucosidase pH 7.4 / IC50: pH 7.4; for IC50: read-out: Enzyme Inhibition-IC50, Almond β-Glucosidase pH 7.4. As to the method: (§1) Yeast alpha-glucosidase and almond beta-glucosidase activities were measured by a modification of the method of Evans, et al., Phytochemistry 22, 768-770 (1983). The modifications included 1) assay of activities at pH 7.4 in HEPES (N-2-hydroxyethylpiperazine-N'-2-ethanesulfonic acid) buffer, 2) measurement in 96 well microtiter plates and 3) inclusion of 10% DMSO in control and test samples.
(§2) The release of p-nitrophenol from the substrate p-nitrophenylglycoside was measured spectrophotometrically in the presence and absence of test compound. Each assay included a known inhibitor of the enzyme as a standard.
To 100 μl 50 mM HEPES buffer, pH 7.4, in a microtiter plate, add 20 μl test compound in DMSO (DMSO alone in control), 40 μl (0.136 units) beta-glucosidase (Sigma) in HEPES buffer and pre-incubate at room temperature for 15 minutes. Add 40 μl 1.25 mM p-nitrophenyl-beta-D-glucopyranoside in HEPES buffer, as substrate and monitor absorbance change at 405 nm in a Biotek EIA Autoreader. Absorption change was measured at 15 to 25 minutes (reaction is linear for at least 30 minutes). Each sample was tested in triplicate. […] Castanospermine was used as standard inhibitor.

For series [2], the target named is almond β-glucosidase. The series can be described thus: Beta-glucosidase inhibition assay, pH 4.8. In kind it is biochemical. Particulars: for IC50: read-out: Enzyme Inhibition-IC50, Almond β-Glucosidase pH 4.8. As to the method:
as §1, §2
To 100 μl 50 mM sodium citrate buffer, pH 4.8, in a microtiter plate, add 15 μl test compound in DMSO (DMSO alone in control), 20 μl (0.017 units) beta-glucosidase (Sigma) in citrate buffer and pre-incubate at room temperature for 15 minutes. Add 25 μl 2.50 mM p-nitrophenyl-beta-D-glucopyranside in citrate buffer, as substrate. […] Add 50 μl 0.4M NaOH. Read absorption change at 405 nm in a Biotek EIA Autoreader. Each sample was tested in triplicate. […] Castanospermine was used as standard inhibitor.

Another series addresses T1, yeast α-glucosidase (Saccharomyces cerevisiae, UniProt P53341).
T1 construct: purchased Sigma
Put plainly: Alpha-glucosidase inhibition assay, pH 7.4. Type of series: biochemical. As to the method:
as §1, §2
To 100 μl 50 mM HEPES buffer, pH 7.4, in a microtiter plate, add 20 μl test compound in DMSO (DMSO alone in control), 40 μl (0.013 units) yeast alpha-glucosidase (Sigma) in HEPES buffer and pre-incubate at room temperature for 15 minutes. Add 40 μl 1.25 mM p-nitrophenyl-alpha-D-glucopyranoside (Sigma) in HEPES buffer, as substrate, and monitor absorbance change at 405 nm in Biotek EIA Auto-reader. Absorption change was measured at 15 to 25 minutes (reaction was linear for at least 30 minutes). Each sample was tested in triplicate. […] Deoxynojirimycin was used as standard inhibitor.

The test system of series [3] is Sheep choroid plexus (SCP) cells. Put plainly: Toxicity in control wells (without virus) of the plaque reduction assay. In kind it is cell-based. Also noted: key: 0: no toxicity; 4: total cell lysates. Particulars: graded 0 to 4. As to the method: (§3) Sheep choroid plexus(SCP) cells were obtained from American Type Culture Collection (ATCC) catalogue number CRL 1700 and were routinely passaged in vitro in Dulbecco's Modified Eagles (DME) medium supplemented with 20% fetal bovine serum (FBS). SCP cells were passaged once per week at a 1:2 or 1:3 split ratio. Visna was titrated by plaque assay in six-well plates. Virus pools were stored at -70° C.
(§4) SCP cells were cultured in 6-well plates to confluence. Wells were washed two times with serum free Minimal Essential Medium (MEM) to remove FBS. 0.2 ml of virus was added per well in MEM supplemented with 4 mM glutamine and gentamycin. After 1 hour adsorption, the virus was aspirated from each well. The appropriate concentration of each compound in 5 ml of Medium 199 (M-199) supplemented with 2% lamb serum, 4 mM glutamine, 0.5% agarose and gentamycin was added to each well. […] To terminate the test: cultures were fixed in 10% formalin, the agar removed, the monolayers stained with 1% crystal violet and plaques counted. Each compound concentration was run in triplicate. […] 0 is no toxicity observed while 4 is total lysing of the cell monolayer.
Toxicity graded on 0 to 4 scale 0 = no toxicity, 4 = total cell lysates

The next series concerns visna virus. The series can be described thus: Plaque reduction assay, inhibition of visna virus in vitro. Type of series: cell-based. Particulars: Visna-maedi virus, read-out: Antiviral Activity (plaque reduction). As to the method: as §3, §4
The next series has as its target glucosidase I. Particulars: Schweden et al.; compared to N-methyl- and N-butyl-derivatives; cited from earlier work.

Values after ≈ are worked out from the molar mass of the structure shown. Like-named read-outs stand apart in the source and are kept apart here.

T1 sequence (P53341 whole entry): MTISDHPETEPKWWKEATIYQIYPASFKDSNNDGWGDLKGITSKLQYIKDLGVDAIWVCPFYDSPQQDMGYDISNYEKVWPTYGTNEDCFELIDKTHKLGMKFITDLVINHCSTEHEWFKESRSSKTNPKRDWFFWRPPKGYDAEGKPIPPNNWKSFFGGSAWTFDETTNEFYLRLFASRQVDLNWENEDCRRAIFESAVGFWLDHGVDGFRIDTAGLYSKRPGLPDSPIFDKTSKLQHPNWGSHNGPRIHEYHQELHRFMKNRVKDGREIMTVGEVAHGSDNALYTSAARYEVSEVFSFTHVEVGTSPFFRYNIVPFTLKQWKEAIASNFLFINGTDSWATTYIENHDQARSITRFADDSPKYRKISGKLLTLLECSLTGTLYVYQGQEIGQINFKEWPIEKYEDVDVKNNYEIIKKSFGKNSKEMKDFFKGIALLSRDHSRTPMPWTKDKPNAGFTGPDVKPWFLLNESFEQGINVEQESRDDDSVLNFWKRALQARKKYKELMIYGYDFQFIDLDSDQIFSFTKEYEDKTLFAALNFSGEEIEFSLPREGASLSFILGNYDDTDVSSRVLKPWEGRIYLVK

Take `Cc1cn([C@H]2C[C@H](N=[N+]=[N-])[C@@H](CO)O2)c(=O)[nH]c1=O` [AZT, 3'-azido-3'-deoxythymidine]: the “HIV inhibitory / antiviral activity” value in the series with HIV (literature) was “inhibit replication of the virus in vitro”.
As to `Nc1ccn([C@H]2CC[C@@H](CO)O2)c(=O)n1` [DDC, Dideoxycytidine, reference compound], the inhibition at 0.01 µg/mL in the series with HIV-1, strain HTLV-IIIB (Human immunodeficiency virus 1, IIIB, CCRF-CEM, 216 h, 0.01 μg/ml, read-out: Percent Reduction of CPE) came out at 41.5%. Moreover, the inhibition at 0.032 µg/mL with HIV-1, strain HTLV-IIIB (Human immunodeficiency virus 1, IIIB, CCRF-CEM, 216 h, 0.032 μg/ml, read-out: Percent Reduction of CPE) worked out at 73.9%. The IC50 in the series with HIV-1, strain HTLV-IIIB (Human immunodeficiency virus 1, IIIB, CCRF-CEM, 216 h, HIV-1, CEM cells, reduction of CPE, read-out: ID50 (median inhibitory dose)) is 0.01 µg/mL (≈ 0.0473 µM).
On to `O=c1[nH]cnc2c1ncn2[C@H]1CC[C@@H](CO)O1` [DDI, reference compound], for which the “Percent Reduction of CPE” value is on record as 28.3% in the series on HIV-1, strain HTLV-IIIB (1.0 μg/ml, 12960 min); 49.6% with HIV-1, strain HTLV-IIIB (3.2 μg/ml, 12960 min); 75.6% in the series on HIV-1, strain HTLV-IIIB (10 μg/ml, 12960 min). In addition, the “ID50 (median inhibitory dose)” value with HIV-1, strain HTLV-IIIB (HIV-1, CEM cells, reduction of CPE, 12960 min) was found to be 3.0 µg/mL (≈ 12.7 µM).
`CCN1C[C@H](O)[C@@H](O)[C@H](O)[C@H]1CO` [Ethyl, reference compound]: the “Enzyme Inhibition, Almond β-Glucosidase pH 7.4” value in the series with almond β-glucosidase [1] (at 1 mM) is given as 67%. In addition, in the series with almond β-glucosidase [1], the “Inhibition Index (first, head is drawing 3)” value is recorded as ~ 1 and the “Inhibition Index (second, head is drawing 4)” value is ~ 1. For the same compound, the “reduction of the yield of infectious HIV” value in the series on HIV (Karpas et al.) was “three”. For the same compound, the IC50 at almond β-glucosidase [2] was about 1000 µM. The inhibition at 1000 µM at yeast α-glucosidase (pH 7.4, read-out: Enzyme Inhibition, Yeast α-Glucosidase pH 7.4) was 51%.
Take `CCCCCN1C[C@H](O)[C@@H](O)[C@H](O)[C@H]1CO` [Example 1, 1,5-(Pentylimino)-1,5-dideoxy-D-glucitol]: at almond β-glucosidase [1], the IC50 was determined as 15 µM; the “Inhibition Index (first, head is drawing 3)” value is reported as 28.2; the “Inhibition Index (second, head is drawing 4)” value was determined as 29.5. Besides, the IC50 at almond β-glucosidase [2] turned out to be 423 µM. Besides, the IC50 at yeast α-glucosidase (pH 7.4, read-out: Enzyme Inhibition-IC50, Yeast α-Glucosidase pH 7.4) turned out to be 444 µM.
With `CCCCCCCCCCCCCCN1C[C@H](O)[C@@H](O)[C@H](O)[C@H]1CO` [Example 4, 1,5-(Tetradecylimino)-1,5-dideoxy-D-glucitol], in the series with almond β-glucosidase [1] (at 10 μM), the “Enzyme Inhibition, Almond β-Glucosidase pH 7.4” value is reported as 31%. In addition, the Toxicity in series [3] (10 μM) amounted to 1; in series [3] (0.1 mM) it was 4; in series [3] (1 mM) it was 4. In addition, the inhibition at 10 µM was found to be 84% in the series on visna virus (10 μM) and 0% at yeast α-glucosidase (pH 7.4, at 10 μM, read-out: Enzyme Inhibition, Yeast α-Glucosidase pH 7.4). Besides, the inhibition at 100 µM in the series on visna virus (0.1 mM) was determined as 100%. The inhibition at 1000 µM with visna virus (1 mM) amounted to 100%. Moreover, in the series with almond β-glucosidase [2] (at 10 μM), the “Enzyme Inhibition, Almond β-Glucosidase pH 4.8” value came out at 22%.
For `O[C@@H]1[C@@H](O)[C@@H](O)CN2CC[C@H](O)[C@@H]12` [L-1,6-diepicastanospermine], in the series with HIV (literature), the “HIV inhibitory / antiviral activity” value was “neither the epimer L-1,6-diepicastanospermine nor the stereoisomer of castanospermine, L-6-epicastanospermine, were found to be inhibitory”.
`O[C@@H]1[C@@H](O)[C@@H](O)CN2CC[C@@H](O)[C@@H]12` [L-6-epicastanospermine]: the “HIV inhibitory / antiviral activity” value in the series with HIV (literature) is “neither the epimer L-1,6-diepicastanospermine nor the stereoisomer of castanospermine, L-6-epicastanospermine, were found to be inhibitory”.
Regarding `CN1C[C@H](O)[C@@H](O)[C@H](O)[C@H]1CO` [Methyl, N-methyl-deoxynojirimycin, reference compound], the IC50 on almond β-glucosidase [1] was determined as 102 µM; on almond β-glucosidase [2], 366 µM; against yeast α-glucosidase, 54 µM. In addition, the “Inhibition Index (first, head is drawing 3)” value with almond β-glucosidase [1] was found to be 3.5. In the series on almond β-glucosidase [1], the “Inhibition Index (second, head is drawing 4)” value is listed as 0.53. Moreover, the “HIV inhibitory / antiviral activity” value in the series with HIV (literature) is listed as “significant antiviral activity”; in the series with HIV (literature, listed as N-methyl derivative of deoxynojirimycin (DNJ)) it was “activity against HIV”.
For the compound `CCCCCCCCCCN1C[C@H](O)[C@@H](O)[C@H](O)[C@H]1CO` [N-decyl-derivatives, reference compound], on glucosidase I, the “Ki, glucosidase I” value was “greater Ki values than the N-methyl- and N-butyl-derivatives”.
For the compound `O[C@H]1[C@H](O)[C@@H](O)CN2CC[C@H](O)[C@H]12` [castanospermine], in the series with HIV (literature), the “HIV inhibitory / antiviral activity” value is recorded as “inhibition of the cytopathic effect (CPE)” and the “reduction in virion infectivity” value is recorded as “only a modest reduction in virion infectivity”.

The values above are taken from patent US5030638A, “Method of antiviral enhancement” (priority 1990, dated 1991).
